The source of these data is patent US12612401B2, “Crystalline forms of an S1P receptor modulator” (Oppilan Pharma Limited, priority 2022, dated 2026).

Structures are written as SMILES. Where only a bound is given, the exact number is not on record here.

One data set concerns the target T1, human S1P1 (Homo sapiens, UniProt P21453).
T1 construct: CHO-Ki Gαqi5 cells expression full-length human S1P1; expressed in transfected cells; host or cells: CHO-K1 Gαqi5 cells (printed 'CHO-Ki Gαqi5'), membranes
As to the kind of experiment: GTPγS binding assay (scintillation proximity assay). It is filed as biochemical. The settings on record: S1P1 membrane from CHO cells expressing full-length human S1P1; GTPγ35S, 60 minutes. On the procedure:
S1P1 membrane is prepared from CHO-Ki Gαqi5 cells expression full-length human S1P1. Scintillation proximity assay (SPA) is performed by incubating membranes, GTPγ^35S, and compounds at various concentrations for 60 minutes. Wheat germ agglutinin-coated SPA beads are added and incubated for 60 minutes before centrifugation and scintillation counting. EC50 data for Compound 1 found to be <1 μM.

A short description of data set [1]: Dynamic vapor sorption (DVS). The settings on record: 25° C. Type of data set: physicochemical. On the procedure: DVS studies were performed using a DVS Intrinsic (SMS, UK). 10 to 20 mg of compound was transferred into the DVS and the weight change recorded with respect to a varying atmospheric humidity at 25° C. using the following parameters: • Drying at 25° C. until dm/dt<±0.002%/min • Min time: 10 min, Max time: 180 min • Equilibrium: 60 min • Cycle: 0, 5, 10, 20, 30, 40, 50, 60, 70, 80, 90, 80, 70, 60, 50, 40, 30, 20, 10, 5, 0 • Characterize the sample after the DVS experiment by XRPD

A short description of data set [2]: Stability study of Form 1 on storage (XRPD and HPLC). The settings on record: 80° C. for one day; 25° C./60% RH and 40° C./75% RH for one week and one month. Type of data set: physicochemical. How it is done: Physicochemical stability was evaluated for Form 1 via storing samples under 80° C. for one day, 25° C./60% RH and 40° C./75% RH for one week and one month.

A short description of data set [3]: Thermodynamic stability relationship of anhydrates (heating; slurry competition). Type of data set: physicochemical. The settings on record: for XRPD result, slurry competition Form 6 and Form 1: five days. How it is done: As a result, slurry competition was performed for Form 6 and Form 1 in acetone and THF systems at 5° C., RT and 50° C. After stirring at desired temperature for five days, the solids were isolated and analyzed by XRPD.

A short description of data set [4]: Critical water activity study between Form 1 and Form 7. Type of data set: physicochemical. The settings on record: for XRPD result after slurry: RT, overnight. From the text: Critical water activity between anhydrous From 1 and hydrous Form 7 was investigated via slurry in MeOH/H2O system with various water activities at room temperature. After stirring overnight, the solids were isolated and analyzed by XRPD.

Data set [5] in a line: Solubility evaluation of Form 1 and Form 2 in DCM/MeOH. It is filed as physicochemical. The settings on record: for concentration dissolved in DCM/MeOH: room temperature or 50° C. On the procedure:
The solubility of Form 1 and Form 2 was evaluated in the same vehicle. Form 1 or Form 2 was added into DCM/MeOH and stirred to dissolve at room temperature or 50° C. A certain amount of HPMC-AS was then added into solution at room temperature, if a clear solution was obtained. Form 2 dissolved in DCM/MeOH at a concentration of 13 mg/mL, while Form 1 dissolved in a lower concentration, 10 mg/mL.

A short description of data set [6]: Form 2 stability via slurry in acetone and methanol/water. It is filed as physicochemical. To be noted: solids isolated at 1 h, 3 h, 5 h, 29 h. On the procedure: Form 2 stability was also evaluated via slurry in acetone and methanol/water at RT. Solids were isolated at 1 h, 3 h, 5 h and 29 h time points.

T1 sequence (P21453 whole entry): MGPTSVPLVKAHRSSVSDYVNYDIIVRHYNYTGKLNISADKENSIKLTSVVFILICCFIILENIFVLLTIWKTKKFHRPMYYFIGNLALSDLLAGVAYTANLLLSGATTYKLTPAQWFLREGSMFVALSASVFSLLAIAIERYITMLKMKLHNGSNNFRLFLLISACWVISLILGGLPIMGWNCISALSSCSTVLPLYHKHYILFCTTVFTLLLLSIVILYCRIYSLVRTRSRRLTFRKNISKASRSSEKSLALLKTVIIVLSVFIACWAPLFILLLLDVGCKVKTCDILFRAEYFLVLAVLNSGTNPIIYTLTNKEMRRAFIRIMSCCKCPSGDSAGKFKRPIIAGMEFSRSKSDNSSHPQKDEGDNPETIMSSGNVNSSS

The term EC50 denotes the midpoint of the concentration-response curve. Read a high EC50 as a need for much substance. `O=C1CC[C@@H](Oc2cc(Cl)c(-c3noc(-c4cn5cc(C(F)(F)F)cc(Cl)c5n4)n3)cc2Cl)CN1` [Compound 1, (R)-5-(2,5-dichloro-4-(5-(8-chloro-6-(trifluoromethyl)imidazo[1,2-a]pyridin-2-yl)-1,2,4-oxadiazol-3-yl)phenoxy)piperidin-2-one]: the half-maximal effective concentration (EC50) on human S1P1 is below 1 µM.
For `O=C1CC[C@@H](Oc2cc(Cl)c(-c3noc(-c4cn5cc(C(F)(F)F)cc(Cl)c5n4)n3)cc2Cl)CN1` [Form 1, (R)-5-(2,5-dichloro-4-(5-(8-chloro-6-(trifluoromethyl)imidazo[1,2-a]pyridin-2-yl)-1,2,4-oxadiazol-3-yl)phenoxy)piperidin-2-one], the hygroscopicity result in data set [1] (DVS) was “slightly hygroscopic”. Also, the “Post-DVS analysis by XRPD” value in data set [1] (after DVS cycle 0-90-0% RH) is listed as “no change”. The moisture uptake in data set [1] (between 0-80% RH) is given as 0.3%. Besides, in data set [2], the “change in HPLC purity after storage (chemical stability)” value is given as “no substantial change in HPLC purity”. The “form change after storage (XRPD)” value in data set [2] was “no form change”. The “XRPD result, slurry competition Form 6 and Form 1” value in data set [3] (THF, 5° C.) was “Form 1”; in data set [3] (THF, 50° C.) it was “Form 1”; in data set [3] (THF, room temperature), “Form 1”; in data set [3] (acetone, 5° C.), “Form 1”; in data set [3] (acetone, 50° C.), “Form 1”; in data set [3] (acetone, room temperature), “Form 1”. Also, the “relative stability versus Form 7” value in data set [4] (MeOH/H2O slurry, water activities 0.0-1.0, RT) is given as “more stable under selected conditions”. For the same compound, the “Result (dissolution on heating), Experiment E” value in data set [5] (DCM 1.633 g, MeOH 0.334 g, Form 1 0.0165 g, AcOH 0.0022 g, HPMC-AS 0.0549 g) is “Dissolved at 50 °C”. Also, the “Result (clarity after stirring for 64 h), Experiment E” value in data set [5] (DCM 1.633 g, MeOH 0.334 g, Form 1 0.0165 g, AcOH 0.0022 g, HPMC-AS 0.0549 g, after stirring for 64 h) was “Clear at 25 °C after”. In addition, in data set [5] (DCM 1.633 g, MeOH 0.334 g, Form 1 0.02 g, AcOH 0.0022 g, HPMC-AS 0.0664 g), the “Result (dissolution), Experiment C” value is “Hazy at 50 °C”. The “Result (dissolution on heating), Experiment D” value in data set [5] (DCM 4.083 g, MeOH 0.834 g, Form 1 0.0414 g, HPMC-AS 0.1378 g) is “Dissolved at 50 °C”. Further, the “Result (clarity after stirring for 64 h), Experiment D” value in data set [5] (DCM 4.083 g, MeOH 0.834 g, Form 1 0.0414 g, HPMC-AS 0.1378 g, after stirring for 64 h) was “Clear at 25 °C after”. In addition, in data set [5] (DCM 4.083 g, MeOH 0.835 g, Form 1 0.05 g, HPMC-AS 0.166 g), the “Result (dissolution), Experiment B” value is “Hazy at 50 °C”. In addition, the “concentration dissolved in DCM/MeOH” value in data set [5] came out at 10000 µg/mL.
In the case of `O=C1CC[C@@H](Oc2cc(Cl)c(-c3noc(-c4cn5cc(C(F)(F)F)cc(Cl)c5n4)n3)cc2Cl)CN1` [Form 2, (R)-5-(2,5-dichloro-4-(5-(8-chloro-6-(trifluoromethyl)imidazo[1,2-a]pyridin-2-yl)-1,2,4-oxadiazol-3-yl)phenoxy)piperidin-2-one], the “XRPD analysis after slurry” value in data set [6] (slurry in acetone at RT) and in data set [6] (slurry in methanol/water at RT) was “Form 1 formation in both solvents within one hour” each time. Moreover, the “Result (dissolution), Experiment A” value in data set [5] (DCM 3.679 g, MeOH 0.752 g, Form 2 0.05 g, HPMC-AS 0.150 g) is given as “Clear at room”. Besides, the “solubility compared with Form 1” value in data set [5] (DCM/MeOH vehicle) is “better solubility than Form 1”. For the same compound, the “concentration dissolved in DCM/MeOH” value in data set [5] turned out to be 13000 µg/mL.
For the compound `O=C1CC[C@@H](Oc2cc(Cl)c(-c3noc(-c4cn5cc(C(F)(F)F)cc(Cl)c5n4)n3)cc2Cl)CN1` [Form 5, (R)-5-(2,5-dichloro-4-(5-(8-chloro-6-(trifluoromethyl)imidazo[1,2-a]pyridin-2-yl)-1,2,4-oxadiazol-3-yl)phenoxy)piperidin-2-one], the “form change during heating” value in data set [3] (heating, exothermic signal observed) is listed as “Form 6 formed at elevated temperature”.
For `O=C1CC[C@@H](Oc2cc(Cl)c(-c3noc(-c4cn5cc(C(F)(F)F)cc(Cl)c5n4)n3)cc2Cl)CN1` [Form 6, (R)-5-(2,5-dichloro-4-(5-(8-chloro-6-(trifluoromethyl)imidazo[1,2-a]pyridin-2-yl)-1,2,4-oxadiazol-3-yl)phenoxy)piperidin-2-one], the “thermodynamic relationship to Form 5” value in data set [3] (according to the Burger-Ramberger Rules) was “monotropically related to Form 5 and is thermodynamically more stable”.
Turning to `O=C1CC[C@@H](Oc2cc(Cl)c(-c3noc(-c4cn5cc(C(F)(F)F)cc(Cl)c5n4)n3)cc2Cl)CN1` [Form 7, (R)-5-(2,5-dichloro-4-(5-(8-chloro-6-(trifluoromethyl)imidazo[1,2-a]pyridin-2-yl)-1,2,4-oxadiazol-3-yl)phenoxy)piperidin-2-one], the “XRPD result after slurry” value in data set [4] (MeOH/H2O 0:1000, Aw 1.0) was “Form 1”; in data set [4] (MeOH/H2O 219:781, Aw 0.9), “Form 1”; in data set [4] (MeOH/H2O 418:582, Aw 0.8), “Form 1”; in data set [4] (MeOH/H2O 573:427, Aw 0.7) it was “Form 1”; in data set [4] (MeOH/H2O 687:313, Aw 0.6) it was “Form 1”; in data set [4] (MeOH/H2O 775:225, Aw 0.5) it was “Form 1”. For the same compound, the “XRPD result after slurry” value in data set [4] (MeOH/H2O 844:156, Aw 0.4) is on record as “Form 1”; in data set [4] (MeOH/H2O 893:107, Aw 0.3) it was “Form 1”; in data set [4] (MeOH/H2O 937:63, Aw 0.2), “Form 1”; in data set [4] (MeOH/H2O 1000:0, Aw 0.0), “Form 1”. Also, the “form conversion in MeOH/H2O slurry” value in data set [4] (all water activities at RT, stirring overnight) is reported as “converted to Form 1”.
